{"source": "patent US9596859B2", "about": "“Emulsifiable concentrate for a phytosanitary composition, phytosanitary composition and phytosanitary film” (Total Marketing Services, priority 2009, dated 2017)", "test_system": "Aonidiella aurantii", "assay": "Insecticidal efficacy of emulsions sprayed on citrus groves (oranges)", "conditions": "concentration 0.151/hl", "description": "Samples of products to be tested on citrus groves (oranges) are prepared. The reference R corresponds to an untreated citrus plot.\nEmulsions according to the invention are used, obtained from X6, at 3% in a mixture of hydrocarbons as described in Example 1 for forming the concentrate. This concentrate is mixed at concentrations of 1 and 2% in water, then emulsified. The citrus groves are sprayed at a rate of 1200 L/ha. The efficacy of these emulsions is compared to that of an emulsion of the prior art T1, as described hereinafter and to a chemical reference product corresponding to the use of a synthetic pesticide, here Chlorpyrifos, reference T2.\nFor the emulsion T1, the concentrate is prepared using 1.4% ethoxylated C12-C14 alcohol and 1.6% ethoxylated C13 alcohol acid phosphate in the same mixture of hydrocarbons. As previously, this concentrate is mixed at concentrations of 1 and 2% in water then emulsified. The resulting emulsions are applied in an identical manner onto citrus.\nThe efficacy of these emulsions in preventing harmful insect activity is then evaluated, by comparison with the reference products and the prior art. To this end, a count is undertaken of the number of insects present at the time of application of the emulsions on the reference, and the number of insects having withstood the treatment after 20 days. The efficacy is measured according to the Abbott formula based on the number of live insects, the number of dead insects and the % of citrus infected (more than 3 insects per fruit).", "data": [{"molecule": "CCOP(=S)(OCC)Oc1nc(Cl)c(Cl)cc1Cl", "note": "[Concentrate T2, Chlorpyrifos]", "values": [{"measurement": "% Efficacy (Based on mortality)", "setting": "Abbott formula, t + 20 days", "value": 83.3, "unit": "%"}, {"measurement": "% Efficacy (Based on the number of live individuals)", "setting": "Abbott formula, t + 20 days", "value": 89.9, "unit": "%"}, {"measurement": "% mortality", "setting": "t + 20 days, citrus", "value": 88.0, "unit": "%"}, {"measurement": "Number of dead individuals", "setting": "t + 20 days, citrus", "value": 172.0}, {"measurement": "Number of live individuals", "setting": "t + 20 days, citrus", "value": 23.5}, {"measurement": "% fruits infected", "setting": "t + 20 days, infected = more than 3 insects per fruit", "value": 7.8, "unit": "%"}, {"measurement": "Number of live individuals", "setting": "t = 0 (at application), citrus", "value": 216.5}]}]}
